Converted amounts (≈) assume the structure as drawn. Like-named read-outs stand apart in the source and are kept apart here. Non-standard residues stand in square brackets, D forms with d. Residues, ends and D or L forms follow the SMILES beside them. d2Nal = N[C@H](Cc1ccc2ccccc2c1)C(=O)O; Cha = N[C@@H](CC1CCCCC1)C(=O)O; Tle = CC(C)(C)[C@H](N)C(=O)O; Aib = CC(C)(N)C(=O)O
Key:
C. glabrata = assay type: cell-based, Candida glabrata
Description: (§1) Two Candida albicans isolates were purchased from the ATCC (No. 24433 and 76615). The other yeast isolates were obtained from the collection of Fondazione Ospedale Maggiore Policlinico, Mangiagalli e Regina Elena, Milano. The collection included C. albicans (7 isolates), C. glabrata (3 isolates), and C. krusei (3 isolates). Antifungal susceptibility testing was performed using the broth microdilution method according to the NCCLS M27-A guidelines (National Committee for Clinical Laboratory Standards. 1997, Reference method for broth dilution antifungal susceptibility testing of yeasts and approved standard NCCLS document M27-A. National Committee for Clinical Laboratory Standards, Wayne, Pa.). The organisms were removed from frozen glycerol stock (10% sterile glycerol suspensions stored at −70° C.), subcultured onto Sabouraud's dextrose plates, and incubated at 35° C. After 48 h of incubation, the plates were inspected for purity. To prepare stationary growth phase yeast, a colony was taken from the agar plate and transferred into 5 mL Sabouraud-dextrose broth and incubated for 48 h at 35° C. Cells were centrifuged at 1,000×g for 10 min and the pellet was washed twice with distilled water. Cells were counted and suspended in RPMI 1640 medium buffered to pH 7.0 with 0.165 mol l^−1 morpholinepropanesulphonic acid (MOPS) buffer (Sigma) to obtain the two times test inoculum (1×10^3 to 5×10^3 CFU/mL). Each well of 96 U-shaped well-plates received 100 μl of each antifungal peptides in concentrations from 10^−4 to 7.8×10^−7 M and 100 μl of the two-times inoculum to a final yeast concentration of 0.5×10−[…] cells ml^−1
(§2) The MIC90, i.e. the minimum inhibitory concentrations endpoint determined as 90% reduction in turbidity measured using a spectrophotometer (Titertek multiscan at 690 nm wave length).

C. krusei = assay type: cell-based, Candida krusei
Description: as §1, §2

C. albicans = assay type: cell-based, Candida albicans
Description: as §1, §2

[1] = tested on: Pseudomonas aeruginosa ATCC 27853; assay type: cell-based
Description: (§3) The bacterial strains Pseudomonas aeruginosa ATCC 27853 and Staphylococcus aureus ATCC 29213 were grown in 2% Bacto Peptone water (Difco 1807-17-4) until growth was exponential. A standard microdilution technique with an inoculum of 2×10^6 CFU/mL was used. The minimal inhibitory concentration (MIC) of the peptides was determined in 1% Bacto Peptone water after incubation overnight at 37° C.

[2] = tested on: Staphylococcus aureus ATCC 29213; assay type: cell-based
Description: as §3

Compound	MIC 90 at 48 hours (C. glabrata; C. glabrata 18012, 35° C.)	MIC 90 at 48 hours (C. glabrata; C. glabrata 995651, 35° C.)	MIC 90 at 48 hours (C. glabrata; C. glabrata 995667, 35° C.)	MIC 90 at 48 hours (C. krusei)	MIC 90 at 48 hours (C. krusei; C. krusei 995668, 35° C.)	MIC 90 at 48 hours (C. krusei; C. krusei 004490, 35° C.)	MIC 90 at 48 hours (C. krusei; C. krusei 991388, 35° C.)	MIC 90 at 48 hours (C. albicans; C. albicans 000954, 35° C.)	MIC 90 at 48 hours (C. albicans; C. albicans 011587, 35° C.)	MIC 90 at 48 hours (C. albicans; C. albicans 983201-R1, 35° C.)	MIC 90 at 48 hours (C. albicans; C. albicans 991185, 35° C.)	MIC 90 at 48 hours (C. albicans; C. albicans 994199, 35° C.)	MIC 90 at 48 hours (C. albicans; C. albicans 995147, 35° C.)	MIC 90 at 48 hours (C. albicans; C. albicans 995439, 35° C.)	MIC 90 at 48 hours (C. albicans; C. albicans ATCC 24433, 35° C.)	MIC 90 at 48 hours (C. albicans; C. albicans ATCC 76615, 35° C.)	MIC 90 at 48 hours (C. albicans)	MIC 90 at 48 hours (C. glabrata)	MIC (minimal inhibitory concentration) [1]	MIC (minimal inhibitory concentration) [2]
CC(C)[C@H](NC(=O)[C@H](Cc1ccccc1)NC(=O)[C@H](CCCCN)NC(=O)[C@H](Cc1ccccc1)NC(=O)[C@H](Cc1c[nH]c2ccccc12)NC(=O)[C@H](CCCNC(=N)N)NC(=O)[C@@H](Cc1ccc2ccccc2c1)NC(=O)[C@@H](N)Cc1c[nH]cn1)C(N)=O [MSH0713, H-His-D(2)-Nal-Arg-Trp-Phe-Lys-Phe-Val-NH2] (H-H[d2Nal]RWFKFV-NH2)	no	no	no	122 µg/mL (≈ 100 µM)	no															
H-His-D(2)-Nal-Arg-Trp-Ala-Lys-Phe-Val-NH2 [MSH0703]	no	no	no		no	no	no	no	no	no	no	no	no	no	no	no				
CC(C)[C@H](NC(=O)[C@H](Cc1ccccc1)NC(=O)[C@H](CCCCN)NC(=O)C(C)(C)NC(=O)[C@H](Cc1c[nH]c2ccccc12)NC(=O)[C@H](CCCNC(=N)N)NC(=O)[C@@H](Cc1ccc2ccccc2c1)NC(=O)[C@@H](N)Cc1c[nH]cn1)C(N)=O [MSH0702, H-His-D(2)-Nal-Arg-Trp-Aib-Lys-Phe-Val-NH2] (H-H[d2Nal]RW[Aib]KFV-NH2)	no	no	no	115 µg/mL (≈ 99.7 µM)				no		no	no	no	no	no	no	no	115 µg/mL (≈ 99.7 µM)			
H-His-D(2)-Nal-Arg-Trp-Gly-Gly-Lys-Phe-Val-NH2 [MSH0701]	no	no	no		no	no	no	no	no	no	no	no	no	no	no	no				
CC(C)[C@H](NC(=O)[C@H](Cc1ccccc1)NC(=O)[C@H](CCCCN)NC(=O)[C@@H](NC(=O)[C@H](Cc1c[nH]c2ccccc12)NC(=O)[C@H](CCCNC(=N)N)NC(=O)[C@@H](Cc1ccc2ccccc2c1)NC(=O)[C@@H](N)Cc1c[nH]cn1)C(C)(C)C)C(N)=O [MSH0707, H-His-D(2)-Nal-Arg-Trp-tBuGly-Lys-Phe-Val-NH2] (H-H[d2Nal]RW[Tle]KFV-NH2)	no	no	no	118 µg/mL (≈ 99.9 µM)	no			no	no	no	no	no	no		no	no	118 µg/mL (≈ 99.9 µM)			
CC(C)[C@H](NC(=O)[C@H](Cc1ccccc1)NC(=O)[C@H](CCCCN)NC(=O)[C@H](CC1CCCCC1)NC(=O)[C@H](Cc1c[nH]c2ccccc12)NC(=O)[C@H](CCCNC(=N)N)NC(=O)[C@@H](Cc1ccc2ccccc2c1)NC(=O)[C@@H](N)Cc1c[nH]cn1)C(N)=O [MSH0704, H-His-D(2)-Nal-Arg-Trp-Cha-Lys-Phe-Val-NH2] (H-H[d2Nal]RW[Cha]KFV-NH2)																		122 µg/mL (≈ 99.9 µM)	61 µg/mL (≈ 49.9 µM)	31 µg/mL (≈ 25.4 µM)
